Measured values as given in US20250197387A1, “BCL-XL DEGRADERS AND USES THEREOF” (Kymera Therapeutics, Inc., priority 2021, published 2025).
Read-outs that look alike come from different tables or passages of the source.

Experiments:
Assay type in all cases: cell-based
[1] = target: T1, BCL-XL (Homo sapiens, UniProt Q07817); assay: BCL-XL degradation assay, western blot in MOLT-4 cells, 16 h; conditions: western blot, MOLT-4 cells, 16 h; for Dmax: read-out: Bcl-xL WB in MOLT-4 degradation 16 h: Average Dmax %; for DC50: read-out: Bcl-xL WB in MOLT-4 degradation 16 h: Mean external-Abs DC50
T1 construct: endogenous in cells; host or cells: MOLT-4
T1 sequence (Q07817 whole entry): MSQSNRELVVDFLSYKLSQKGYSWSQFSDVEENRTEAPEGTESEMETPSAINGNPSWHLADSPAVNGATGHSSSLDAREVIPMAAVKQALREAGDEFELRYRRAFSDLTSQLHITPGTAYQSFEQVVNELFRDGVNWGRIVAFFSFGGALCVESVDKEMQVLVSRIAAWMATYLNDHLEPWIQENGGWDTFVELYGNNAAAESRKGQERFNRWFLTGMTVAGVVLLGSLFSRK
Procedure, shortened: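 MOLT-4 cells treated with compounds at 0.02-10 μM final for 16 hr at 37° C; lysates analysed by western blot with anti-BCL-xL, beta-actin and GAPDH loading controls, infrared imaging and densitometry; DC50 and Dmax % reported as letter codes.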

[2] = system: MOLT-4 cells; assay: CTG (CellTiter-Glo) cell viability assay, MOLT-4; conditions: Homo sapiens, 3 day incubation, read-out: CTG Cell Viability Assay - MOLT-4 3 day: Average external-IC50
Experimental: Compound-mediated viability effect on MOLT-4 and Caki-2 was quantitatively determined using the CellTiter-Glo® Luminescent Cell Viability Assay kit from Promega (Catalog number G7570) following manufacturer's recommended procedures. Briefly, MOLT-4 and Caki-2 cells were seeded into 384 well plates (Grenier Bio-One, Catalog number 781080) with a density of 10,000 cells per well. Compounds were then added to the assay plate with final top concentration of 10 μM and 1:3 dilution series with total of 9 doses. The final DMSO concentration is normalized to 0.2%. The assay plates were incubated at 37° C., for 3 days under 5% CO2. Then the assay plate was equilibrated at room temperature for 10 minutes. To determine cell viability, 30 uL CellTiter Glo reagent was added to each well and the assay plate was centrifuged at 1000 rpm for 30 second, incubated at room temperature for 10 min, and analyzed by detecting the luminescence using a multimode plate reader (EnVision 2105, PerkinElmer). The data was then analyzed by software Prism 7.0 from GraphPad and the dose response curves are fit using a three-parameter logistic equation to calculate IC50.
The letter codes for MOLT-4 IC50 include: A (<0.1 μM); B (0.1-1.0 μM); C (>1.0-3.0 μM); and D (>3.0 μM). The letter codes for Caki-2 IC50 include: A (<0.1 μM); B (0.1-1.0 μM); C (>1.0-10.0 μM); and D (>10.0 μM).

[3] = target: T1, BCL-XL; assay: Bcl-xL ELISA degradation in MOLT-4 cells, 6 h; conditions: for DC50: read-out: Bcl-xL ELISA in MOLT-4 degradation 6 h: Mean external-Abs DC50
Experimental: The letter codes for BCL-XL DC50 include: A (<0.01 μM); B (0.01-0.1 μM); C (>[…]); D (>0.5-1.0 μM); and E (>1.0 μM). The letter codes for Dmax % include A (>75%); B (50 to 75%); C (<50%).

Dmax [1] [%] | DC50 [1] [nM] | IC50 ([2]; MOLT-4, 72 h) [nM] | Dmax [3] [%] | DC50 [3] [nM] | Structure (SMILES) | IC50 ([2]; 72 h) [nM]
– | – | 100 to 1000 | > 75 | 10 to 100 | Cc1ncsc1-c1ccc([C@H](C)NC(=O)[C@@H]2C[C@@H](O)CN2C(=O)[C@@H](c2cc(N3CCN(c4ccc(S(=O)(=O)NC(=O)c5nc(N6CCc7cccc(C(=O)Nc8nc9ccccc9s8)c7C6)ccc5-c5cnn(CC6CCCCC6)c5C)cc4)CC3)no2)C(C)C)cc1 [I-214] | –
– | – | 100 to 1000 | 50 to 75 | 100 to 500 | Cc1ncsc1-c1ccc(CNC(=O)[C@@H]2C[C@@H](O)CN2C(=O)[C@@H](NC(=O)C2(F)CC2)C(C)(C)C)c(OC2CCN(CCNC(=O)c3nc(N4CCc5cccc(C(=O)Nc6nc7ccccc7s6)c5C4)ccc3-c3cnn(CC4CCCCC4)c3C)CC2)c1 [I-215] | –
– | – | 1000 to 3000 | < 50 | > 1000 | Cc1ncsc1-c1ccc(CNC(=O)[C@@H]2C[C@@H](O)CN2C(=O)[C@@H](NC(=O)C2(F)CC2)C(C)(C)C)c(OCC2CN(C3CCC(NC(=O)c4nc(N5CCc6cccc(C(=O)Nc7nc8ccccc8s7)c6C5)ccc4-c4cnn(CC5CCCCC5)c4C)CC3)C2)c1 (stereo partly shown) [I-216] | –
– | – | > 3000 | < 50 | – | Cc1ncsc1-c1ccc([C@H](C)NC(=O)[C@@H]2C[C@@H](O)CN2C(=O)[C@@H](NC(=O)CCCCCCCOc2nc(N3CCc4cccc(C(=O)Nc5nc6ccccc6s5)c4C3)ccc2-c2cnn(CC3CCCCC3)c2C)C(C)(C)C)cc1 [I-218] | –
– | – | 100 to 1000 | > 75 | 10 to 100 | Cc1ncsc1-c1ccc(CNC(=O)[C@@H]2C[C@@H](O)CN2C(=O)[C@@H](NC(=O)C2(F)CC2)C(C)(C)C)c(OCCc2ccc(S(=O)(=O)NC(=O)c3nc(N4CCc5cccc(C(=O)Nc6nc7ccccc7s6)c5C4)ccc3-c3cnn(CC4CCCCC4)c3C)cc2)c1 [I-219] | –
– | – | > 3000 | < 50 | > 1000 | Cc1ncsc1-c1ccc([C@H](C)NC(=O)[C@@H]2C[C@@H](O)CN2C(=O)[C@@H](NC(=O)CCCCN(C)CCCCNC(=O)c2nc(N3CCc4cccc(C(=O)Nc5nc6ccccc6s5)c4C3)ccc2-c2cnn(CC3CCCCC3)c2C)C(C)(C)C)cc1 [I-221] | –
– | – | 1000 to 3000 | < 50 | – | Cc1ncsc1-c1ccc(CNC(=O)[C@@H]2C[C@@H](O)CN2C(=O)[C@@H](NC(=O)C2(F)CC2)C(C)(C)C)c(OCCCCCCNCc2nc(N3CCc4cccc(C(=O)Nc5nc6ccccc6s5)c4C3)ccc2-c2cnn(CC3CCCCC3)c2C)c1 [I-222] | –
– | – | 100 to 1000 | 50 to 75 | 10 to 100 | Cc1ncsc1-c1ccc([C@H](C)NC(=O)[C@@H]2C[C@H](O)CN2C(=O)[C@@H](NC(=O)CCCCCS(=O)(=O)NC(=O)c2nc(N3CCc4cccc(C(=O)Nc5nc6ccccc6s5)c4C3)ccc2-c2cnn(CC34CC5CC(CC(C5)C3)C4)c2C)C(C)(C)C)cc1 [I-286] | –
– | – | 100 to 1000 | > 75 | 10 to 100 | Cc1ncsc1-c1ccc([C@H](C)NC(=O)[C@@H]2C[C@@H](O)CN2C(=O)[C@@H](NC(=O)Cc2ccc(S(=O)(=O)NC(=O)c3nc(N4CCc5cccc(C(=O)Nc6nc7ccccc7s6)c5C4)ccc3-c3cnn(CC4CCCCC4)c3C)cc2)C(C)(C)C)cc1 [I-287] | –
– | – | 100 to 1000 | 50 to 75 | 500 to 1000 | Cc1ncsc1-c1ccc([C@H](C)NC(=O)[C@@H]2C[C@@H](O)CN2C(=O)[C@H](c2cc(OCC3CCN(CCNC(=O)c4nc(N5CCc6cccc(C(=O)Nc7nc8ccccc8s7)c6C5)ccc4-c4cnn(CC5CCCCC5)c4C)CC3)no2)C(C)C)cc1 [I-288] | –
– | – | 100 to 1000 | 50 to 75 | 10 to 100 | Cc1ncsc1-c1ccc([C@H](C)NC(=O)[C@@H]2C[C@@H](O)CN2C(=O)[C@@H](c2cc(OCC3CCN(CCNC(=O)c4nc(N5CCc6cccc(C(=O)Nc7nc8ccccc8s7)c6C5)ccc4-c4cnn(CC5CCCCC5)c4C)CC3)no2)C(C)C)cc1 [I-289] | –
– | – | 100 to 1000 | 50 to 75 | 100 to 500 | Cc1ncsc1-c1ccc(CNC(=O)[C@@H]2C[C@H](O)CN2C(=O)[C@@H](NC(=O)C2(F)CC2)C(C)(C)C)c(OCCCCCS(=O)(=O)NC(=O)c2nc(N3CCc4cccc(C(=O)Nc5nc6ccccc6s5)c4C3)ccc2-c2cnn(CC34CC5CC(CC(C5)C3)C4)c2C)c1 [I-290] | –
– | – | 1000 to 3000 | < 50 | > 1000 | Cc1ncsc1-c1ccc([C@H](C)NC(=O)[C@@H]2C[C@@H](O)CN2C(=O)[C@@H](NC(=O)C2CCN(c3ccc(S(=O)(=O)NC(=O)c4nc(N5CCc6cccc(C(=O)Nc7nc8ccccc8s7)c6C5)ccc4-c4cccc(OC(C)C)c4C)cc3)CC2)C(C)(C)C)cc1 [I-305] | –
– | – | 1000 to 3000 | < 50 | > 1000 | Cc1ncsc1-c1ccc([C@H](C)NC(=O)[C@@H]2C[C@@H](O)CN2C(=O)[C@@H](c2cc(OC3CCN([C@H]4CC[C@H](NC(=O)c5nc(N6CCc7cccc(C(=O)Nc8nc9ccccc9s8)c7C6)ccc5-c5cnn(CC6CCCCC6)c5C)CC4)CC3)no2)C(C)C)cc1 [I-313] | –

The remaining lines, values behind:

Structure (SMILES) | Dmax [1] [%] | DC50 [1] [nM] | IC50 ([2]; MOLT-4, 72 h) [nM] | Dmax [3] [%] | DC50 [3] [nM] | IC50 ([2]; 72 h) [nM]
Cc1ncsc1-c1ccc([C@H](C)NC(=O)[C@@H]2C[C@@H](O)CN2C(=O)[C@@H](NC(=O)CCCC(=O)NCCOc2ccc(C(=O)Nc3nc4ccccc4s3)c3c2CCN(c2ccc(-c4cnn(CC5CCCCC5)c4C)c(C(=O)O)n2)C3)C(C)(C)C)cc1 [I-43] | 50 to 75 | 100 to 500 | 100 to 1000 | – | – | –
Cc1ncsc1-c1ccc([C@H](C)NC(=O)[C@@H]2C[C@@H](O)CN2C(=O)[C@@H](NC(=O)CCCCCCCC(=O)NCCOc2ccc(C(=O)Nc3nc4ccccc4s3)c3c2CCN(c2ccc(-c4cnn(CC5CCCCC5)c4C)c(C(=O)O)n2)C3)C(C)(C)C)cc1 [I-45] | > 75 | 10 to 100 | 1000 to 3000 | – | – | –
Cc1ncsc1-c1ccc(CNC(=O)[C@@H]2C[C@@H](O)CN2C(=O)[C@@H](NC(=O)C2(F)CC2)C(C)(C)C)c(OCCCC(=O)NCCOc2ccc(C(=O)Nc3nc4ccccc4s3)c3c2CCN(c2ccc(-c4cnn(CC5CCCCC5)c4C)c(C(=O)O)n2)C3)c1 [I-46] | 50 to 75 | 100 to 500 | 1000 to 3000 | – | – | –
Cc1ncsc1-c1ccc(CNC(=O)[C@@H]2C[C@@H](O)CN2C(=O)[C@@H](NC(=O)C2(F)CC2)C(C)(C)C)c(OCCCCCC(=O)NCCOc2ccc(C(=O)Nc3nc4ccccc4s3)c3c2CCN(c2ccc(-c4cnn(CC5CCCCC5)c4C)c(C(=O)O)n2)C3)c1 [I-47] | < 50 | > 1000 | > 3000 | – | – | –
Cc1ncsc1-c1ccc(CNC(=O)[C@@H]2C[C@@H](O)CN2C(=O)[C@@H](NC(=O)C2(F)CC2)C(C)(C)C)c(OCCCCCCCC(=O)NCCOc2ccc(C(=O)Nc3nc4ccccc4s3)c3c2CCN(c2ccc(-c4cnn(CC5CCCCC5)c4C)c(C(=O)O)n2)C3)c1 [I-48] | 50 to 75 | 100 to 500 | 100 to 1000 | – | – | –
Cc1ncsc1-c1ccc([C@H](C)NC(=O)[C@@H]2C[C@@H](O)CN2C(=O)[C@@H](NC(=O)CCCCCC(=O)N2CCN(CC[C@H](CSc3ccccc3)Nc3ccc(S(=O)(=O)NC(=O)c4csc(N5CCc6cccc(C(=O)Nc7nc8ccccc8s7)c6C5)n4)cc3S(=O)(=O)C(F)(F)F)CC2)C(C)(C)C)cc1 [I-108] | > 75 | 10 to 100 | 1000 to 3000 | – | – | –
C#Cc1ccc([C@H](CO)NC(=O)[C@@H]2C[C@@H](O)CN2C(=O)[C@@H](NC(=O)CCCCCC(=O)N2CCN(CC[C@H](CSc3ccccc3)Nc3ccc(S(=O)(=O)NC(=O)c4ccc(N5CCN(CC6=C(c7ccc(Cl)cc7)CCC(C)(C)C6)CC5)cc4)cc3S(=O)(=O)C(F)(F)F)CC2)C(C)(C)C)cc1 [I-116] | > 75 | 10 to 100 | < 100 | – | – | –
Cc1ncsc1-c1ccc(CNC(=O)[C@@H]2CC(O)CN2C(=O)[C@@H](NC(=O)C2(F)CC2)C(C)(C)C)c(OCCCCCCCCS(=O)(=O)NC(=O)c2nc(N3CCc4cccc(C(=O)Nc5nc6ccccc6s5)c4C3)ccc2-c2cnn(CC34CC5CC(CC(C5)C3)C4)c2C)c1 (stereo partly shown) [I-122] | > 75 | < 10 | < 100 | – | – | –
Cc1ncsc1-c1ccc([C@H](C)NC(=O)[C@@H]2C[C@@H](O)CN2C(=O)[C@@H](NC(=O)CN(C)CCCS(=O)(=O)NC(=O)c2nc(N3CCc4cccc(C(=O)Nc5nc6ccccc6s5)c4C3)ccc2-c2cnn(CC3CCCCC3)c2C)C(C)(C)C)cc1 [I-220] | – | – | – | > 75 | < 10 | < 100
